Data as given in patent US20240059671A1, “TYROSINE KINASE 2 (TYK2) DEGRADATION COMPOUNDS AND METHODS OF USE” (CULLGEN (SHANGHAI), INC., priority 2020, published 2024).

Target: TYK2 (Homo sapiens, UniProt P29597)
Experiment: TYK2 protein degradation in MOLT-4 cells by immunoblotting
Type: cell-based
Parameters: endogenous in cells; host or cells: MOLT-4
Conditions: MOLT-4 cells, 24 hours
Summary of the method: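 MOLT-4 cells were exposed to compounds at 0.5 and 5 μM for 24 h, then lysed in RIPA buffer with protease and phosphatase inhibitors. TYK2 was detected by SDS-PAGE immunoblot with chemiluminescence, and band densitometry gave percent degradation.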

TYK2, sequence (P29597 whole entry): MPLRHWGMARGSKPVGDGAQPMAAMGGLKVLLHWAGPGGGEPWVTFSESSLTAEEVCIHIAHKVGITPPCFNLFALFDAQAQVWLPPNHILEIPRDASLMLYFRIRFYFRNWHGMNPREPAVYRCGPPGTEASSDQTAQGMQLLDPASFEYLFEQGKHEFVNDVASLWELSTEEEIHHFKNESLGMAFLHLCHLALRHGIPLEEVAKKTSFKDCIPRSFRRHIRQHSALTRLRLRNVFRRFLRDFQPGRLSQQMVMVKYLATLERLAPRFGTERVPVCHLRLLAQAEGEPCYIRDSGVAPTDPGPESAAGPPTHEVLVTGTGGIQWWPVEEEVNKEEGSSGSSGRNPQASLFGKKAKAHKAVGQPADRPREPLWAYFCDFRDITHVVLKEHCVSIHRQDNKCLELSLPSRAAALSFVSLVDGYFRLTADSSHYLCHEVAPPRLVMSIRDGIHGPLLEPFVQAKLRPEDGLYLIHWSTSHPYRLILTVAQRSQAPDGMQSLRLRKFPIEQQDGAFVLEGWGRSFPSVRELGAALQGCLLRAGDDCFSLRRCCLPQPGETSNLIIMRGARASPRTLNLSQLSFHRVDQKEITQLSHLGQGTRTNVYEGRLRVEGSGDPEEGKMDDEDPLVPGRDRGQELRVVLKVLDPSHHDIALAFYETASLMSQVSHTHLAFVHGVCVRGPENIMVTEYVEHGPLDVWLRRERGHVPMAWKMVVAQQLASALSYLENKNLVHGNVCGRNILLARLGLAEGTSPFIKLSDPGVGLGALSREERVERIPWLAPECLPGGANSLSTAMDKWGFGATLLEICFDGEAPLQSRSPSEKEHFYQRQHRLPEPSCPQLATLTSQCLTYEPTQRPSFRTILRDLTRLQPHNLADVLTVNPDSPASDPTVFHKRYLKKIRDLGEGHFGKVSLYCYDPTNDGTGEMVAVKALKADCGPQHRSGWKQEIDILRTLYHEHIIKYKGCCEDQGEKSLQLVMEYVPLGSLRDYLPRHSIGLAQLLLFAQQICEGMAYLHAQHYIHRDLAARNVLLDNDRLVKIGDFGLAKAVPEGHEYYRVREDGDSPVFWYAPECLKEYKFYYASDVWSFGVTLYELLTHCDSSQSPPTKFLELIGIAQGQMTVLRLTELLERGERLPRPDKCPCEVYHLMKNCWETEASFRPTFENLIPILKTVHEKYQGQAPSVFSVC

Row | Compound | TYK2 Degradation (MOLT-4, 0.5 μM) | TYK2 Degradation (MOLT-4, 5 μM) | TYK2 Degradation (0.5 μM) [%] | TYK2 Degradation (5 μM) [%]
1 | CNC(=O)c1nnc(NC(=O)CNC(=O)CCCCCCCCCOc2cc(-c3scnc3C)ccc2CNC(=O)[C@@H]2C[C@@H](O)CN2C(=O)[C@@H](NC(=O)C2(F)CC2)C(C)(C)C)cc1Nc1cccc(-c2ncn(C)n2)c1OC [CPD-109, 6-(2-(10-(2-(((2S,4R)-1-((S)-2-(1-Fluorocyclopropane-1-carboxamido)-3,3-dimethylbutanoyl)-4-hydroxypyrrolidine-2-carboxamido)methyl)-5-(4-methylthiazol-5-yl)phenoxy)decanamido)acetamido)-4-((2-methoxy-3-(1-methyl-JH-1,2,4-triazol-3-yl)phenyl)amino)-N-methylpyridazine-3-carboxamide] | B (B: <60% TYK2 degradation, and >20% TYK2 degradation) | A (A: ≥60% TYK2 degradation) |  | 
2 | CNC(=O)c1nnc(NC(=O)C2CC2)cc1Nc1cccc(-c2ncn(CCNC(=O)CCCCC(=O)N[C@H](C(=O)N3C[C@H](O)C[C@H]3C(=O)NCc3ccc(-c4scnc4C)cc3)C(C)(C)C)n2)c1OC [CPD-077, N^1-(2-(3-(3-((6-(Cyclopropanecarboxamido)-3-(methylcarbamoyl)pyridazin-4-yl)amino)-2-methoxyphenyl)-1H-1,2,4-triazol-1-yl)ethyl)-N^6-((S)-1-((2S,4R)-4-hydroxy-2-((4-(4-methylthiazol-5-yl)benzyl)carbamoyl)pyrrolidin-1-yl)-3,3-dimethyl-1-oxobutan-2-yl)adipamide] |  |  | ≤20 | ≤20
3 | CNC(=O)c1nnc(NC(=O)CNC(=O)CCOCCNc2ccc3c(c2)C(=O)N(C2CCC(=O)NC2=O)C3=O)cc1Nc1cccc(-c2ncn(C)n2)c1OC (centres unmarked) [CPD-061, 6-(2-(3-(2-((2-(2,6-Dioxopiperidin-3-yl)-1,3-dioxoisoindolin-5-yl)amino)ethoxy)propanamido)acetamido)-4-((2-methoxy-3-(1-methyl-1H-1,2,4-triazol-3-yl)phenyl)amino)-N-methylpyridazine-3-carboxamide] |  |  | ≤20 | ≤20
4 | CNC(=O)c1nnc(NC(=O)CNC(=O)CCCCCCCCOc2cc(-c3scnc3C)ccc2CNC(=O)[C@@H]2C[C@@H](O)CN2C(=O)[C@@H](NC(=O)C2(F)CC2)C(C)(C)C)cc1Nc1cccc(-c2ncn(C)n2)c1OC [CPD-108, 6-(2-(9-(2-(((2S,4R)-1-((S)-2-(1-Fluorocyclopropane-1-carboxamido)-3,3-dimethylbutanoyl)-4-hydroxypyrrolidine-2-carboxamido)methyl)-5-(4-methylthiazol-5-yl)phenoxy)nonanamido)acetamido)-4-((2-methoxy-3-(1-methyl-1H-1,2,4-triazol-3-yl)phenyl)amino)-N-methylpyridazine-3-carboxamide] | C (C: ≤20% TYK2 degradation) | C (C: ≤20% TYK2 degradation) |  | 
5 | CNC(=O)c1nnc(NC(=O)C2CC2)cc1Nc1cccc(-c2ncn(CCNC(=O)CCOCCOCCOCCNc3cccc4c3C(=O)N(C3CCC(=O)NC3=O)C4=O)n2)c1OC (centres unmarked) [CPD-010, 6-(Cyclopropanecarboxamido)-4-((3-(1-(1-((2-(2,6-dioxopiperidin-3-yl)-1,3-dioxoisoindolin-4-yl)amino)-12-oxo-3,6,9-trioxa-13-azapentadecan-15-yl)-1H-1,2,4-triazol-3-yl)-2-methoxyphenyl)amino)-N-methylpyridazine-3-carboxamide] |  |  | ≤20 | 
6 | CNC(=O)c1nnc(NC(=O)CNC(=O)CCCCCCNc2cccc3c2C(=O)N(C2CCC(=O)NC2=O)C3=O)cc1Nc1cccc(-c2ncn(C)n2)c1OC (centres unmarked) [CPD-047, 6-(2-(7-((2-(2,6-dioxopiperidin-3-yl)-1,3-dioxoisoindolin-4-yl)amino)heptanamido)acetamido)-4-((2-methoxy-3-(1-methyl-H-1,2,4-triazol-3-yl)phenyl)amino)-N-methylpyridazine-3-carboxamide] |  |  | 60 | ≤20
7 | CNC(=O)c1nnc(NC(=O)C2CC2)cc1Nc1cccc(-c2ncn(CCNC(=O)CCCNc3ccc4c(c3)C(=O)N(C3CCC(=O)NC3=O)C4=O)n2)c1OC (centres unmarked) [CPD-015, 6-(Cyclopropanecarboxamido)-4-((3-(1-(2-(4-((2-(2,6-dioxopiperidin-3-yl)-1,3-dioxoisoindolin-5-yl)amino)butanamido)ethyl)-1H-1,2,4-triazol-3-yl)-2-methoxyphenyl)amino)-N-methylpyridazine-3-carboxamide] |  |  | ≤20 | 
8 | CNC(=O)c1nnc(NC(=O)CNC(=O)CCCOc2cc(-c3scnc3C)ccc2CNC(=O)[C@@H]2C[C@@H](O)CN2C(=O)[C@@H](NC(=O)C2(F)CC2)C(C)(C)C)cc1Nc1cccc(-c2ncn(C)n2)c1OC [CPD-103, 6-(2-(4-(2-(((2S,4R)-1-((S)-2-(1-Fluorocyclopropane-1-carboxamido)-3,3-dimethylbutanoyl)-4-hydroxypyrrolidine-2-carboxamido)methyl)-5-(4-methylthiazol-5-yl)phenoxy)butanamido)acetamido)-4-((2-methoxy-3-(1-methyl-1H-1,2,4-triazol-3-yl)phenyl)amino)-N-methylpyridazine-3-carboxamide] | C (C: ≤20% TYK2 degradation) | C (C: ≤20% TYK2 degradation) |  | 
9 | CNC(=O)c1nnc(NC(=O)CNC(=O)CCCCCCCCCNC(=O)C[C@H](NC(=O)[C@@H]2C[C@@H](O)CN2C(=O)[C@@H](NC(=O)C2(F)CC2)C(C)(C)C)c2ccc(-c3scnc3C)cc2)cc1Nc1cccc(-c2ncn(C)n2)c1OC [CPD-094, 6-(2-(10-((S)-3-((2S,4R)-1-((S)-2-(1-Fluorocyclopropane-1-carboxamido)-3,3-dimethylbutanoyl)-4-hydroxypyrrolidine-2-carboxamido)-3-(4-(4-methylthiazol-5-yl)phenyl)propanamido)decanamido)acetamido)-4-((2-methoxy-3-(1-methyl-1H-1,2,4-triazol-3-yl)phenyl)amino)-N-methylpyridazine-3-carboxamide] | B (B: <60% TYK2 degradation, and >20% TYK2 degradation) | B (B: <60% TYK2 degradation, and >20% TYK2 degradation) |  | 
10 | CNC(=O)c1nnc(NC(=O)CNC(=O)CCOCCOCCNc2cccc3c2C(=O)N(C2CCC(=O)NC2=O)C3=O)cc1Nc1cccc(-c2ncn(C)n2)c1OC (centres unmarked) [CPD-050, 6-(2-(3-(2-(2-((2-(2,6-Dioxopiperidin-3-yl)-1,3-dioxoisoindolin-4-yl)amino)ethoxy)ethoxy)propanamido)acetamido)-4-((2-methoxy-3-(1-methyl-1H-1,2,4-triazol-3-yl)phenyl)amino)-N-methylpyridazine-3-carboxamide] |  |  | ≤20 | ≤20
11 | CNC(=O)c1nnc(NC(=O)CNC(=O)CCCCC(=O)N[C@H](C(=O)N2C[C@H](O)C[C@H]2C(=O)NCc2ccc(-c3scnc3C)cc2)C(C)(C)C)cc1Nc1cccc(-c2ncn(C)n2)c1OC [CPD-036, N^1-((S)-1-((2S,4R)-4-Hydroxy-2-((4-(4-methylthiazol-5-yl)benzyl)carbamoyl)pyrrolidin-1-yl)-3,3-dimethyl-1-oxobutan-2-yl)-N^6-(2-((5-((2-methoxy-3-(1-methyl-1H-1,2,4-triazol-3-yl)phenyl)amino)-6-(methylcarbamoyl)pyridazin-3-yl)amino)-2-oxoethyl)adipamide] |  |  | ≤20 | 40
12 | CNC(=O)c1nnc(NC(=O)C2CC2)cc1Nc1cccc(-c2ncn(CCNC(=O)CCCCCCCNc3ccc4c(c3)C(=O)N(C3CCC(=O)NC3=O)C4=O)n2)c1OC (centres unmarked) [CPD-024, 6-(Cyclopropanecarboxamido)-4-((3-(1-(2-(8-((2-(2,6-dioxopiperidin-3-yl)-1,3-dioxoisoindolin-5-yl)amino)octanamido)ethyl)-1H-1,2,4-triazol-3-yl)-2-methoxyphenyl)amino)-N-methylpyridazine-3-carboxamide] |  |  | ≤20 | 30
13 | CNC(=O)c1nnc(NC(=O)CNC(=O)CCCCCCCNC(=O)C[C@H](NC(=O)[C@@H]2C[C@@H](O)CN2C(=O)[C@@H](NC(=O)C2(F)CC2)C(C)(C)C)c2ccc(-c3scnc3C)cc2)cc1Nc1cccc(-c2ncn(C)n2)c1OC [CPD-092, 6-(2-(8-((S)-3-((2S,4R)-1-((S)-2-(1-Fluorocyclopropane-1-carboxamido)-3,3-dimethylbutanoyl)-4-hydroxypyrrolidine-2-carboxamido)-3-(4-(4-methylthiazol-5-yl)phenyl)propanamido)octanamido)acetamido)-4-((2-methoxy-3-(1-methyl-1H-1,2,4-triazol-3-yl)phenyl)amino)-N-methylpyridazine-3-carboxamide] | C (C: ≤20% TYK2 degradation) | C (C: ≤20% TYK2 degradation) |  | 
14 | CNC(=O)c1nnc(NC(=O)CNC(=O)CCCCCCCCCCNC(=O)C[C@H](NC(=O)[C@@H]2C[C@@H](O)CN2C(=O)[C@@H](NC(=O)C2(F)CC2)C(C)(C)C)c2ccc(-c3scnc3C)cc2)cc1Nc1cccc(-c2ncn(C)n2)c1OC [CPD-095, 6-(2-(11-((S)-3-((2S,4R)-1-((S)-2-(1-Fluorocyclopropane-1-carboxamido)-3,3-dimethylbutanoyl)-4-hydroxypyrrolidine-2-carboxamido)-3-(4-(4-methylthiazol-5-yl)phenyl)propanamido)undecanamido)acetamido)-4-((2-methoxy-3-(1-methyl-1H-1,2,4-triazol-3-yl)phenyl)amino)-N-methylpyridazine-3-carboxamide] | B (B: <60% TYK2 degradation, and >20% TYK2 degradation) | A (A: ≥60% TYK2 degradation) |  | 
